Earlier results as cited in patent US10278869B2, “Apparatus for aspirating, irrigating and cleansing wounds” (SMITH & NEPHEW PLC, priority 2002, dated 2019).

Settings: EP standard, CRS

gentamycin sulphate
activity: 616 IU mg^−1
